This passage reports melting point results from a melting point compilation (Tetko et al.).

By melting point is commonly meant the temperature, or range, at which the solid turns liquid.

The structures appear in SMILES notation. Residues, ends and D or L forms follow the SMILES beside them. *: point of attachment. Cbz = O=C(OCc1ccccc1)*; Boc = CC(C)(C)OC(=O)*; OBn = c1ccc(CO*)cc1; Bn = c1ccc(C*)cc1 Bounds are passed on as bounds.

On to `CCN(c1nc(OCCOC(=O)CCC(=O)OCCOc2nc(N(CC)C3CC(C)(C)NC(C)(C)C3)nc(N(CC)C3CC(C)(C)NC(C)(C)C3)n2)nc(N(CC)C2CC(C)(C)NC(C)(C)C2)n1)C1CC(C)(C)NC(C)(C)C1`, for which the melting point was found to be 85 °C.

In the case of `CCCC(=O)c1c[nH]c2ccc(COC(=O)c3ccccc3)cc2c1=O`, the melting point lay within 220 to 223 °C.

On to `N=C(Nc1ccc2[nH]cc(C3=CCN4CCCC4C3)c2c1)c1cccs1` (configuration not stated), for which the melting point was 122 to 124 °C.

Consider `O=S(=O)(Cl)Cc1cccc(C(F)(F)F)c1`, for which the melting point was 60 °C.

Turning to `C=CCOC1OC(CO)C(O)C(OC(=O)CC(CCCCCCCCCCC)OCc2ccccc2)C1NC(=O)CC(CCCCCCCCCCC)OCc1ccccc1` (configuration not stated), the melting point lay in the range of 80 to 82 °C.

In the case of `Cc1ccccc1-n1c(-c2cc(-c3ccncc3)c(N3CCOCC3)s2)nc2ccccc2c1=O`, the melting point was 208 to 210 °C.

As for `C=COC(=O)CCC`, the melting point is -80 °C.

The molecule `CCCCCCCCCCCCCCCC(=O)OCC1OC(n2cc(F)c(=O)n(C(=O)c3cccc(OC)c3OC)c2=O)CC1OC(=O)CCCCCCCCCCCCCCC` (configuration not stated) yielded a melting point of 77 to 78 °C.

`CCC(C)(C)c1ccc(OCC(=O)Nc2cccc(C(=O)Nc3[nH]n(-c4c(Cl)cc(Cl)cc4Cl)c(=O)c3-n3nnn(-c4ccccc4)c3=S)c2)c(C(C)(C)CC)c1` came in with a melting point of 169 to 171 °C.

As for `Cc1cc(C(F)(F)F)ccc1Cn1nc(OC(C)C)cc1CCCOc1ncccc1CC(=O)O`, the melting point lay in the range of 105 to 107 °C.

The molecule `O=S(=O)(C(/C=C/c1c(F)c(F)c(F)c(F)c1F)c1ccc(I)cc1)C(/C=C/c1c(F)c(F)c(F)c(F)c1F)c1ccc(I)cc1` (configuration not stated) showed a melting point of 178 to 181 °C.

`CCCCCCCCCCCCCCCCCCN(CCCCCCCCCCCCCCCCCC)CCCN(CCOC(=O)Nc1ccccc1)CCOC(=O)Nc1ccccc1`: the melting point was in the range of 54 to 56 °C.

In the case of `CSCCC(NC(=O)C(CCC(N)=O)NC(=O)OC(C)(C)C)C(=O)NC(C)C(=O)NC(C(=O)NC(CCCCNC(=O)OCc1ccccc1)C(=O)OCc1ccccc1)C(C)C` (configuration not stated) (Boc-QMAVK(Cbz)-OBn; configuration not given here), the melting point fell in the range of 238 to 241 °C.

`COc1cc(OC)c(/C=C/C(c2ccc(OC)c(NC(N)=O)c2)S(=O)(=O)C(/C=C/c2c(OC)cc(OC)cc2OC)c2ccc(OC)c(NC(N)=O)c2)c(OC)c1` (configuration not stated) showed a melting point of 218 to 220 °C.

As to `COc1cc(OC)c(/C=C/C(c2ccc(OC)c(NCC(=O)O)c2)S(=O)(=O)C(/C=C/c2c(OC)cc(OC)cc2OC)c2ccc(OC)c(NCC(=O)O)c2)c(OC)c1` (configuration not stated), the melting point fell in the range of 128 to 131 °C.

Turning to `C=C(C)C(=O)OCCCCCCCCCCCOc1ccc(-c2nc(-c3ccccc3)nc(-c3ccc(OCCCCCCCCCCCOC(=O)C(=C)C)cc3O)n2)c(O)c1`, the melting point was 68.3 °C.

On to `CC(=O)OCC(CNC(=O)c1c(I)c(C(=O)NCC(COC(C)=O)OC(C)=O)c(I)c(N2CCCCC2=O)c1I)OC(C)=O` (configuration not stated), for which the melting point is 130 to 134 °C.

`COc1cc([N+](=O)[O-])cc(C(=O)C2CCCN(C(=O)c3cc([N+](=O)[O-])cc(OC)c3OC)NNN(C(=O)c3cc([N+](=O)[O-])cc(OC)c3OC)CCCC(C(=O)c3cc([N+](=O)[O-])cc(OC)c3OC)CC2)c1OC` (configuration not stated) showed a melting point of 232 to 235 °C.

In the case of `Brc1c(Br)c(Br)c(Oc2nc(Oc3c(Br)c(Br)c(Br)c(Br)c3Br)nc(Oc3c(Br)c(Br)c(Br)c(Br)c3Br)n2)c(Br)c1Br`, the melting point was 320 to 325 °C.

The molecule `CCCCCCCCCCN(CCCCN(CCCN(CCCCCCCCCC)C(=O)c1cccc(O)c1O)C(=O)c1cccc(O)c1O)C(=O)c1cccc(O)c1O` displayed a melting point of 63 to 65 °C.

As for `COCCOCCOc1cc2c3cc(OCCOCCOC)c(OCCOCCOC)cc3c3cc(OCCOCCOC)c(OCCOCCOC)cc3c2cc1OCCOCCOC`, the melting point amounted to 54 °C.

`CCC(C)C1NC(=O)C(NC(=O)C(CC(C)C)N(C)C(C)=O)C(C)OC(=O)C(Cc2ccc(OC)cc2)N(C)C(=O)C2CCCN2C(=O)C(CC(C)C)NC(=O)C(C)C(=O)C(C(C)C)OC(=O)CC1OC(C)=O` (configuration not stated) returned a melting point of 130 to 133 °C.

With `C=CC(=O)OCCCCCCCCCCCOc1ccc(-c2nc(-c3ccccc3)nc(-c3ccc(OCCCCCCCCCCCOC(=O)C=C)cc3O)n2)c(O)c1`, the melting point was 93.3 °C.

In the case of `CCCCCCCCCCCCc1c2c(c(CCCCCCCCCCCC)c3c1-c1ccc(Br)cc1C3=C(C#N)C#N)-c1ccc(Br)cc1C2=C(C#N)C#N`, the melting point was in the range of 136 to 137 °C.

Molecule `FC(F)(Br)C(F)(Cl)Br` (configuration not stated) displayed a melting point of -72.9 °C.

In turn, `C[C@H](CCN(CCCCNC(=O)[C@@H](NC(=O)CCCCCCNC(=NC(=O)OCc1ccccc1)NC(=O)OCc1ccccc1)O[C@@H](C)c1ccc2ccccc2c1)C(=O)OCc1ccccc1)NC(=O)OCc1ccccc1` showed a melting point of 58 °C.

In the case of `CC(c1cc(C(C)(C)C)cc(C(C)(C)C)c1O)c1cc(C(C)(C)C)cc(C(C)(C)C)c1Op1oc2c(C(C)(C)C)cc(C(C)(C)C)cc2c2cc(C(C)(C)C)cc(C(C)(C)C)c2o1` (configuration not stated), the melting point was 273 to 277 °C.

`CC(O)CN(C)C` (configuration not stated) had a melting point of -40 °C.

In turn, `O=C(O)Cc1cccc(-c2cc(C(=O)CCCCC(=O)c3ccc(OC4OC(CO)C(O)C(O)C4O)c(-c4cccc(CC(=O)O)c4)c3)ccc2OC2OC(CO)C(O)C(O)C2O)c1` (configuration not stated) yielded a melting point of 127 to 129 °C.

As for `O=S(=O)(OCC(I)C(F)(F)C(F)(F)C(F)(F)C(F)(F)F)OCC(I)C(F)(F)C(F)(F)C(F)(F)C(F)(F)F` (configuration not stated), the melting point lay within 45 to 48 °C.

Take `Cc1c(SCCN2CCOCC2)ccnc1CSc1nc2ccccc2n1CC(=O)N(C)C`: the melting point lay within 178 to 180 °C.

The molecule `COC1C(=O)C2(C)C(OC)CC3OCC3(OC(C)=O)C2C(OC(=O)c2ccccc2)C2(O)CC(OC(=O)C(O)C(NC(=O)OC(C)(C)C)c3ccccc3)C(C)=C1C2(C)C` (configuration not stated) showed a melting point of 125 to 145 °C.

As to `CC(C)(C)c1cc(-c2cc(C(C)(C)C)cc(C(C)(C)C)c2OCP(=O)(c2ccccc2)c2ccccc2)c(OCP(=O)(c2ccccc2)c2ccccc2)c(C(C)(C)C)c1`, the melting point was 211 to 212 °C.

The molecule `CCOCc1nc2c(N)nc3cc(Br)ccc3c2n1CC1CCN(C(=O)CC(C)C)CC1` had a melting point of 199 to 200 °C.

Take `C=C(C)C(=O)OCCCCOC(=O)C(=C)C`: the melting point was -117 °C.

As to `CCC(C)C1NC(=O)C(CC(C)C)NC(=O)C2CCCN2C(=O)C(C(C)C)NC(=O)C(Cc2ccc(O)cc2)NC(=O)C2CCCN2C(=O)C2CCCN2C(=O)C(C(C)CC)NC1=O` (configuration not stated) (cyclo(IIPPYVPL); configuration not given here), the melting point fell in the range of 180 to 182 °C.

In turn, `CCSC(C)CC1CC(=O)C(=C(CC)NOCC=CCl)C(=O)C1` (configuration not stated) gave a melting point of less than 25 °C.

As to `CCCc1nn(C)c(C(=O)O)c1[N+](=O)[O-]`, the melting point lay within 122 to 126 °C.

`F[Si](c1ccccc1)(c1ccccc1)c1ccccc1`: the melting point is 64 °C.

Take `COc1ccc([N+](=O)[O-])cc1C(/C=C/c1ccc(I)cc1)S(=O)(=O)C(/C=C/c1ccc(I)cc1)c1cc([N+](=O)[O-])ccc1OC` (configuration not stated): the melting point fell in the range of 218 to 221 °C.

Molecule `CC(CCCCCCCCCCCCc1scc(Br)c1Br)C(=O)C(C)CCCCCCCCCCCCc1scc(Br)c1Br` (configuration not stated) had a melting point of 50 to 52 °C.

`COC(=O)Nc1cc(C(/C=C/c2c(OC)cc(OC)cc2OC)S(=O)(=O)C(/C=C/c2c(OC)cc(OC)cc2OC)c2ccc(OC)c(NC(=O)OC)c2)ccc1OC` (configuration not stated) registered a melting point of 188 to 191 °C.

The molecule `COc1cc(OC)c(C=CC(c2ccc(OC)c(NC(=O)C(C)O)c2)S(=O)(=O)C(C=Cc2c(OC)cc(OC)cc2OC)c2ccc(OC)c(NC(=O)C(C)O)c2)c(OC)c1` (configuration not stated) displayed a melting point of 174 to 176 °C.

`CCCCCCCCCCSc1c(SCCCCCCCCCC)c(SCCCCCCCCCC)c(SCCCCCCCCCC)c(SCCCCCCCCCC)c1SCCCCCCCCCC` displayed a melting point of 29 to 30 °C.

Turning to `CCCCCCC=CC(OC(=O)c1ccccc1)C(COC1OC(COCC(=O)O)C(OCC(=O)O)C(OC(=O)c2ccccc2)C1OC(=O)c1ccccc1)NC(=O)CCCCCCCCC(=O)OC` (configuration not stated), the melting point is 124 to 125 °C.

`COc1cc(C(=O)NC2OC(COC(C)=O)C(OC3OC(COC(C)=O)C(OC(C)=O)C(OC(C)=O)C3OC(C)=O)C(OC(C)=O)C2OC(C)=O)ccc1Cl` (configuration not stated): the melting point was 106 to 110 °C.

The molecule `CCC(COC(=O)CCc1cc(C(C)(C)C)c(O)c(C(C)(C)C)c1)(COC(=O)CCc1cc(C(C)(C)C)c(O)c(C(C)(C)C)c1)COC(=O)CCc1cc(C(C)(C)C)c(O)c(C(C)(C)C)c1` yielded a melting point of 66 to 79 °C.

`CC(C)C(NC(=O)C(Cc1ccc(OCc2ccccc2)cc1)NC(=O)C(COCc1ccccc1)NC(=O)C(Cc1c[nH]c2ccccc12)NC(=O)OC(C)(C)C)C(=O)O` (configuration not stated) (Boc-WS(Bn)Y(Bn)V-OH; configuration not given here) showed a melting point of 98 to 100 °C.

`N=S(=O)(c1ccccc1)c1cccnc1` (configuration not stated) returned a melting point of 109 °C.

`CC(C)C[C@H](NC(=O)[C@H](Cc1c[nH]cn1)NC(=O)[C@H](Cc1cccc2ccccc12)NC(=O)OCc1ccccc1)[C@@H](O)CC(=O)NN1CCN(c2cccc(C(F)(F)F)c2)CC1`: the melting point was 179 to 181 °C.

The molecule `CC(C)CCCC(C)C1CCC2C3CC=C4CC(N(CCCNC(=O)CCNC(=O)CCNC(=O)CCCCCNc5ccc([N+](=O)[O-])c6nonc56)S(=O)(=O)c5ccccc5[N+](=O)[O-])CCC4(C)C3CCC12C` (configuration not stated) displayed a melting point of 113 to 114 °C.

`CC(C)CCCC(C)C1CCC2C3CC=C4CC(NCCCNC(=O)CCNC(=O)CCNC(=O)CCCCCNc5ccc([N+](=O)[O-])cc5[N+](=O)[O-])CCC4(C)C3CCC12C` (configuration not stated): the melting point fell in the range of 118 to 119 °C.

`CCCCc1nn(-c2cc(NC(=O)c3ccccc3)ccc2C(F)(F)F)c(=O)n1Cc1ccc(-c2ccccc2S(=O)(=O)NC(=O)c2ccccc2Cl)cc1F` came in with a melting point of 210 to 212 °C.

In turn, `CN1CCC(c2nn(-c3ccncc3)c3ccccc23)CC1` registered a melting point of 205 to 207 °C.

`CC(=O)OCC(CNC(=O)c1c(I)c(C(=O)NCC(COC(C)=O)OC(C)=O)c(I)c(N2CCCC2=O)c1I)OC(C)=O` (configuration not stated) displayed a melting point of 130 to 133 °C.

`COc1ccc(Br)cc1S(=O)(=O)Nc1onc(C)c1Br` gave a melting point of 192 to 195 °C.

On to `CN(c1cccc2cc(C3=NCC(C(=O)N4CCOCC4)S3)[nH]c12)S(=O)(=O)c1cccs1` (configuration not stated), for which the melting point lay in the range of 238 to 239 °C.
